Results reported in ChEMBL document CHEMBL4732096, “Design, synthesis and evaluation of calix[4]arene-based carbonyl amide derivatives with antitumor activities” (Eur J Med Chem, 2021).
pIC50: −log10 of the molar value.

Experiments:
HT-29 = test: Antiproliferative activity against human HT-29 cells assessed as inhibition of cell growth at 10 uM measured after 72 hrs by MTT assay relative to control; assay type: functional
A549 [1] = test: Antiproliferative activity against human A549 cells assessed as inhibition of cell growth measured after 72 hrs by MTT assay; assay type: functional, cell-based; conditions: A549, 72 h
HepG2 = test: Antiproliferative activity against human HepG2 cells assessed as inhibition of cell growth at 10 uM measured after 72 hrs by MTT assay relative to control; assay type: functional
MDA-MB-231 [2] = test: Antiproliferative activity against human MDA-MB-231 cells assessed as inhibition of cell growth measured after 72 hrs by MTT assay; assay type: functional, cell-based; conditions: MDA-MB-231, 72 h
MDA-MB-231 [3] = test: Antiproliferative activity against human MDA-MB-231 cells assessed as inhibition of cell growth at 10 uM measured after 72 hrs by MTT assay relative to control; assay type: functional
MCF7 = test: Antiproliferative activity against human MCF7 cells assessed as inhibition of cell growth at 10 uM measured after 72 hrs by MTT assay relative to control; assay type: functional
[4] = Cytotoxicity against HUVEC cells assessed as inhibition of cell growth at 10 uM measured after 72 hrs by MTT assay; assay type: cell-based; conditions: human
A549 [5] = test: Antiproliferative activity against human A549 cells assessed as inhibition of cell growth at 10 uM measured after 72 hrs by MTT assay relative to control; assay type: functional

pIC50 (A549 [1])	pIC50 (MDA-MB-231 [2])	SMILES	inhibition at 10 µM (HT-29) [%]	inhibition at 10 µM (HepG2) [%]	inhibition at 10 µM (MDA-MB-231 [3]) [%]	inhibition at 10 µM (MCF7) [%]	inhibition at 72 h, 10 µM [4] [%]	inhibition at 10 µM (A549 [5]) [%]
5.15	5.17	CC(C)(C)c1cc2c(O)c(c1)Cc1cc(C(C)(C)C)cc(c1OC/C=C/C(=O)N(CCO)CCO)Cc1cc(C(C)(C)C)cc(c1O)Cc1cc(C(C)(C)C)cc(c1OC/C=C/C(=O)N(CCO)CCO)C2	39.8	41	58.8	80.2	< 0	82
5.53	5.49	CC(Oc1c2cc(C(C)(C)C)cc1Cc1cc(C(C)(C)C)cc(c1O)Cc1cc(C(C)(C)C)cc(c1OC(C)C(=O)NCCCCCO)Cc1cc(C(C)(C)C)cc(c1O)C2)C(=O)NCCCCCO (stereo not given)	49.6	19.8	89.3	< 0	31.8	86.8
4.86	4.93	CC(C)(C)c1cc2c(O)c(c1)Cc1cc(C(C)(C)C)cc(c1OCCCC(=O)NCCO)Cc1cc(C(C)(C)C)cc(c1O)Cc1cc(C(C)(C)C)cc(c1OCCCC(=O)NCCO)C2	40.1	28.7	25.8	16.2	57	54.4
5.65	6.04	CCC(Oc1c2cc(C(C)(C)C)cc1Cc1cc(C(C)(C)C)cc(c1O)Cc1cc(C(C)(C)C)cc(c1OC(CC)C(=O)NCCO)Cc1cc(C(C)(C)C)cc(c1O)C2)C(=O)NCCO (stereo not given)	32.1	26.1	79.6	< 0	34.3	68.7
< 4.00	4.03	CC(C)(C)c1cc2c(O)c(c1)Cc1cc(C(C)(C)C)cc(c1OC/C=C/C(=O)NCCCCCO)Cc1cc(C(C)(C)C)cc(c1O)Cc1cc(C(C)(C)C)cc(c1OC/C=C/C(=O)NCCCCCO)C2	23.9	11.8	39.5	< 0	23.8	37.6
< 4.00	4.01	CC(C)(C)c1cc2c(O)c(c1)Cc1cc(C(C)(C)C)cc(c1OCCCCCC(=O)NCCCCCO)Cc1cc(C(C)(C)C)cc(c1O)Cc1cc(C(C)(C)C)cc(c1OCCCCCC(=O)NCCCCCO)C2	21.2	21.9	31.2	< 0	< 0	46.1
< 4.00	< 4.00	CC(C)(C)c1cc2c(O)c(c1)Cc1cc(C(C)(C)C)cc(c1OCCCCCC(=O)N(CCO)CCO)Cc1cc(C(C)(C)C)cc(c1O)Cc1cc(C(C)(C)C)cc(c1OCCCCCC(=O)N(CCO)CCO)C2	22.2	17.3	34.5	1.44	< 0	46.8
5.43	5.79	CC(Oc1c2cc(C(C)(C)C)cc1Cc1cc(C(C)(C)C)cc(c1O)Cc1cc(C(C)(C)C)cc(c1OC(C)C(=O)N(CCO)CCO)Cc1cc(C(C)(C)C)cc(c1O)C2)C(=O)N(CCO)CCO (stereo not given)	65.7	93.8	91.3	96.2	57.2	91.2
5.42	5.87	CCC(Oc1c2cc(C(C)(C)C)cc1Cc1cc(C(C)(C)C)cc(c1O)Cc1cc(C(C)(C)C)cc(c1OC(CC)C(=O)NCCCCCO)Cc1cc(C(C)(C)C)cc(c1O)C2)C(=O)NCCCCCO (stereo not given)	26.3	9.3	63.7	< 0	< 0	52.7
5.44	5.28	CC(C)(C)c1cc2c(O)c(c1)Cc1cc(C(C)(C)C)cc(c1OC/C=C/C(=O)NCCCO)Cc1cc(C(C)(C)C)cc(c1O)Cc1cc(C(C)(C)C)cc(c1OC/C=C/C(=O)NCCCO)C2	36.1	9.5	61.5	48.2	38.8	63.3
5.60	5.93	CC(Oc1c2cc(C(C)(C)C)cc1Cc1cc(C(C)(C)C)cc(c1O)Cc1cc(C(C)(C)C)cc(c1OC(C)C(=O)NCCO)Cc1cc(C(C)(C)C)cc(c1O)C2)C(=O)NCCO (stereo not given)	47.3	67.9	89.2	76.8	35.7	91.8
4.99	4.75	CC(C)(C)c1cc2c(O)c(c1)Cc1cc(C(C)(C)C)cc(c1OCCCC(=O)NCCCO)Cc1cc(C(C)(C)C)cc(c1O)Cc1cc(C(C)(C)C)cc(c1OCCCC(=O)NCCCO)C2	35.3	24.4	29.5	< 0	< 0	56.4
< 4.00	4.37	CC(C)(C)c1cc2c(O)c(c1)Cc1cc(C(C)(C)C)cc(c1OCCCCCC(=O)NCCCO)Cc1cc(C(C)(C)C)cc(c1O)Cc1cc(C(C)(C)C)cc(c1OCCCCCC(=O)NCCCO)C2	17.9	9.3	30.1	< 0	< 0	56.5
5.20	5.26	CC(C)(C)c1cc2c(O)c(c1)Cc1cc(C(C)(C)C)cc(c1OC/C=C/C(=O)NCCO)Cc1cc(C(C)(C)C)cc(c1O)Cc1cc(C(C)(C)C)cc(c1OC/C=C/C(=O)NCCO)C2	27.8	19.8	35	38	8.9	63.5
6.02	6.07	CCC(Oc1c2cc(C(C)(C)C)cc1Cc1cc(C(C)(C)C)cc(c1O)Cc1cc(C(C)(C)C)cc(c1OC(CC)C(=O)NCCCO)Cc1cc(C(C)(C)C)cc(c1O)C2)C(=O)NCCCO (stereo not given)	41.5	20.3	80.1	< 0	< 0	80.2
5.12	5.04	CC(C)(C)c1cc2c(O)c(c1)Cc1cc(C(C)(C)C)cc(c1OCCCC(=O)NCCCCCO)Cc1cc(C(C)(C)C)cc(c1O)Cc1cc(C(C)(C)C)cc(c1OCCCC(=O)NCCCCCO)C2	33.1	25	34.4	< 0	5.8	50.5
5.75	5.88	CC(Oc1c2cc(C(C)(C)C)cc1Cc1cc(C(C)(C)C)cc(c1O)Cc1cc(C(C)(C)C)cc(c1OC(C)C(=O)NCCCO)Cc1cc(C(C)(C)C)cc(c1O)C2)C(=O)NCCCO (stereo not given)	58.4	69	90.1	82.5	48.2	91.2
< 4.00	4.88	CC(C)(C)c1cc2c(O)c(c1)Cc1cc(C(C)(C)C)cc(c1OCCCCCC(=O)NCCO)Cc1cc(C(C)(C)C)cc(c1O)Cc1cc(C(C)(C)C)cc(c1OCCCCCC(=O)NCCO)C2	17.3	22.6	34.3	< 0	< 0	61.6
5.42	5.34	CC(C)(C)c1cc2c(O)c(c1)Cc1cc(C(C)(C)C)cc(c1OCC(=O)NCCO)Cc1cc(C(C)(C)C)cc(c1O)Cc1cc(C(C)(C)C)cc(c1OCC(=O)NCCO)C2	66.2	89.9	90.5	92.2	19.6	92.3
5.42	5.24	CC(C)(C)c1cc2c(O)c(c1)Cc1cc(C(C)(C)C)cc(c1OCCCC(=O)N(CCO)CCO)Cc1cc(C(C)(C)C)cc(c1O)Cc1cc(C(C)(C)C)cc(c1OCCCC(=O)N(CCO)CCO)C2	61.5	62.8	80	60.1	< 0	88.1
